Measured values published in US20240067693A1, “POLYPEPTIDES AND USES THEREOF” (MEDIMMUNE LIMITED, priority 2020, published 2024).
Numbered stars: 1 amine (or outer) side, 2 acyl side, 3 side chain; on linkers, the order of the positions; unused ones are H or OH. Bridge positions count the residues as written; N and C are the ends. Square brackets hold non-standard residues; d marks the D form. Side chains are listed from the residue outwards. Peptide text beside a SMILES is read from it. * marks the point of attachment. C18 diacid = O=C(O)CCCCCCCCCCCCCCCCC(=O)*; γGlu = O=C(O)[C@H](CCC(=O)[*:2])N[*:1]; αMeF = C[C@](N)(Cc1ccccc1)C(=O)O

How the values were obtained:
[1] = target: T1, human amylin receptor (calcitonin receptor co-expressed with receptor activity modifying protein, RAMP3) (hAMYR3) (Homo sapiens, UniProt O60896+P30988); assay: cAMP production in 1321N1 cells with stable recombinant expression of human amylin receptor (hAMYR3); type: cell-based; conditions: for Ratio (selectivity hAMYR vs hCTR, ratio of EC50 values at the two receptors): EC50 hCTR / EC50 hAMYR3; for EC50: cAMP, 1321N1 cells, assay buffer with 0.1% BSA, read-out: EC50 (pM) hAMYR3
T1 construct: expressed in transfected cells
T1 sequence (P30988 25-474): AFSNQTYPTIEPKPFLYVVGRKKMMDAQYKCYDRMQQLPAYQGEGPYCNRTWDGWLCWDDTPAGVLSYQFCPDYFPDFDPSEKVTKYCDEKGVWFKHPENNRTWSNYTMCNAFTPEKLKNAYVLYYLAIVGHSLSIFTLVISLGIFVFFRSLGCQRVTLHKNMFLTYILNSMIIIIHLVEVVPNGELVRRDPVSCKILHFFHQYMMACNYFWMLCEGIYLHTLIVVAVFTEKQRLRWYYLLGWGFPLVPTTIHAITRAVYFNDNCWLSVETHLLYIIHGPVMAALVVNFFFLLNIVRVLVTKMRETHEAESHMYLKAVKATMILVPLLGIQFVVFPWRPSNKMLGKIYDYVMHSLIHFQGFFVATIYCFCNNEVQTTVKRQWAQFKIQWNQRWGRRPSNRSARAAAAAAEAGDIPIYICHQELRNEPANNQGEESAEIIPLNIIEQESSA
T1 sequence (O60896 24-148 partner): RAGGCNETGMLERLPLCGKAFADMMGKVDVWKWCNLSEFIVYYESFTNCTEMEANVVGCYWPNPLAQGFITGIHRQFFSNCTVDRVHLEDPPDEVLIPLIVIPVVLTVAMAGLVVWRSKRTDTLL
How it was run: (§1)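 Receptor-expressing cells (human receptors in 1321N1, rat receptors in HEK) incubated 30 min at room temperature with peptide in HBSS/HEPES pH 7.4, 0.1% BSA, 0.5 mM IBMX. cAMP read by HTRF; EC50 from 4-parameter fit as % of maximal amylin or calcitonin response.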

[2] = target: T2, rat calcitonin receptor (rat CTR) (Rattus norvegicus, UniProt P32214); assay: cAMP production in HEK cells with stable recombinant expression of rat calcitonin receptor (rat CTR); type: cell-based; conditions: assay buffer with 0.1% BSA
T2 construct: expressed in transfected cells
T2 sequence (P32214 25-516): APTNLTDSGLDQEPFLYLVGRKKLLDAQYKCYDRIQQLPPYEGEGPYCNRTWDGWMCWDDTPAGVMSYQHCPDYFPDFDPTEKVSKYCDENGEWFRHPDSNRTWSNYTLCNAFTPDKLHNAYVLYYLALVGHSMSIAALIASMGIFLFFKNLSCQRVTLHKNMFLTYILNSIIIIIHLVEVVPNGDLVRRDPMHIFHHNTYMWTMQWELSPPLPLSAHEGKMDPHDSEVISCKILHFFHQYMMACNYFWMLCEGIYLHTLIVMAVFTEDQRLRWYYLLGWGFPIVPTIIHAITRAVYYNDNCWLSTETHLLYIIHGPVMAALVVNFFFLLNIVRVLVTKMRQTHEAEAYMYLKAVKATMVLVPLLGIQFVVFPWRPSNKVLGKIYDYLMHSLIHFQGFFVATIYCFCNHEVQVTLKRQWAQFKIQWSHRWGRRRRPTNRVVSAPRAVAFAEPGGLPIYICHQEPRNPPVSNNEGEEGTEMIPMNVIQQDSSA
How it was run: as §1

[3] = Pharmacokinetic determination via IV and SC administration in Sprague Dawley rats; conditions: male, rat, plasma, 20 nmol/kg
[4] = target: T3, human calcitonin receptor (hCTR) (Homo sapiens, UniProt P30988); assay: cAMP production in 1321N1 cells with stable recombinant expression of human calcitonin receptor (hCTR); type: cell-based; conditions: cAMP, 1321N1 cells, assay buffer with 0.1% BSA; read-out: EC50 (pM) hCTR
T3 construct: expressed in transfected cells
T3 sequence (P30988 25-474): T1 sequence (P30988 25-474)
How it was run: as §1

## CC[C@H](C)[C@H](NC(=O)[C@@H]1CCCN1C(=O)CNC(=O)[C@](C)(Cc1ccccc1)NC(=O)[C@H](CC(N)=O)NC(=O)[C@H](CC(N)=O)NC(=O)[C@H](CO)NC(=O)[C@H](CO)NC(=O)[C@H](Cc1c[nH]cn1)NC(=O)[C@H](CCCNC(=N)N)NC(=O)[C@H](CC(C)C)NC(=O)[C@H](Cc1ccccc1)NC(=O)[C@H](CCC(=O)O)NC(=O)[C@H](C)NC(=O)[C@H](CC(C)C)NC(=O)[C@H](CCCNC(=N)N)NC(=O)[C@H](CCC(N)=O)NC(=O)[C@@H](NC(=O)[C@H](C)NC(=O)[C@@H]1CSSC[C@H](NC(=O)[C@H](CCCCN)NC(=O)[C@@H](N)CCCCNC(=O)CC[C@H](NC(=O)CCCCCCCCCCCCCCCCC(=O)O)C(=O)O)C(=O)N[C@@H](CC(N)=O)C(=O)N[C@@H]([C@@H](C)O)C(=O)N[C@@H](C)C(=O)N[C@@H]([C@@H](C)O)C(=O)N1)[C@@H](C)O)C(=O)N[C@@H](CC(C)C)C(=O)N1CCC[C@H]1C(=O)N1CCC[C@H]1C(=O)N[C@H](C(=O)N[C@@H](CC(N)=O)C(=O)N[C@H](C(=O)NCC(=O)N[C@@H](CO)C(=O)N[C@@H](CC(N)=O)C(=O)N[C@H](C(=O)N[C@@H](Cc1ccc(O)cc1)C(N)=O)[C@@H](C)O)C(C)C)[C@@H](C)O [Peptide 12, K(γE-C18diacid)K[CNTATC]ATQRLAEFLRHSSNN(αMePhe)GPILPPTNVGSNTY-amide] (H-K([γGlu-C18 diacid])KCNTATCATQRLAEFLRHSSNN[αMeF]GPILPPTNVGSNTY-NH2; disulfide 3-8; N-terminus assumed)
[1]
  Ratio (selectivity hAMYR vs hCTR, ratio of EC50 values at the two receptors): 8
  EC50: 158 pM
[2]
  EC50: 107 pM
[3]; iv
  half-life: 9.2 h
[3]; sc
  half-life: 9.7 h
[4]
  EC50: 1220 pM

## CC[C@H](C)[C@H](NC(=O)[C@@H]1CCCN1C(=O)CNC(=O)[C@](C)(Cc1ccccc1)NC(=O)[C@H](CC(N)=O)NC(=O)[C@H](CC(N)=O)NC(=O)[C@H](CO)NC(=O)[C@H](CO)NC(=O)[C@H](Cc1c[nH]cn1)NC(=O)[C@H](CCCNC(=N)N)NC(=O)[C@H](CC(C)C)NC(=O)[C@H](Cc1ccccc1)NC(=O)[C@H](CC(N)=O)NC(=O)[C@H](C)NC(=O)[C@H](CC(C)C)NC(=O)[C@H](CCCNC(=N)N)NC(=O)[C@H](CCC(N)=O)NC(=O)[C@@H](NC(=O)[C@H](C)NC(=O)[C@@H]1CSSC[C@H](NC(=O)[C@H](CCCCN)NC(=O)[C@@H](N)CCCCNC(=O)CC[C@H](NC(=O)CCCCCCCCCCCCCCCCC(=O)O)C(=O)O)C(=O)N[C@@H](CC(N)=O)C(=O)N[C@@H]([C@@H](C)O)C(=O)N[C@@H](C)C(=O)N[C@@H]([C@@H](C)O)C(=O)N1)[C@@H](C)O)C(=O)N[C@@H](CC(C)C)C(=O)N1CCC[C@H]1C(=O)N1CCC[C@H]1C(=O)N[C@H](C(=O)N[C@@H](CCC(=O)O)C(=O)N[C@H](C(=O)NCC(=O)N[C@@H](CO)C(=O)N[C@@H](CC(N)=O)C(=O)N[C@H](C(=O)N[C@@H](Cc1ccc(O)cc1)C(N)=O)[C@@H](C)O)C(C)C)[C@@H](C)O [Peptide 15, K(γE-C18diacid)K[CNTATC]ATQRLANFLRHSSNN(αMePhe)GPILPPTEVGSNTY-amide] (H-K([γGlu-C18 diacid])KCNTATCATQRLANFLRHSSNN[αMeF]GPILPPTEVGSNTY-NH2; disulfide 3-8; N-terminus assumed)
[1]
  Ratio (selectivity hAMYR vs hCTR, ratio of EC50 values at the two receptors): 10
  EC50: 522 pM
[2]
  EC50: 1820 pM
[3]; iv
  half-life: 10.4 h
[3]; sc
  half-life: 11.5 h
[4]
  EC50: 5460 pM

## CC[C@H](C)[C@H](NC(=O)[C@@H]1CCCN1C(=O)CNC(=O)[C@](C)(Cc1ccccc1)NC(=O)[C@H](CC(N)=O)NC(=O)[C@H](CC(N)=O)NC(=O)[C@H](CO)NC(=O)[C@H](CO)NC(=O)[C@H](Cc1c[nH]cn1)NC(=O)[C@H](CCCNC(=N)N)NC(=O)[C@H](CC(C)C)NC(=O)[C@H](Cc1ccccc1)NC(=O)[C@H](CC(N)=O)NC(=O)[C@H](C)NC(=O)[C@H](CC(C)C)NC(=O)[C@H](CCCNC(=N)N)NC(=O)[C@H](CCC(N)=O)NC(=O)[C@@H](NC(=O)[C@H](C)NC(=O)[C@@H]1CSSC[C@H](NC(=O)[C@@H](N)CCCCNC(=O)CC[C@H](NC(=O)CC[C@H](NC(=O)CCCCCCCCCCCCCCCCC(=O)O)C(=O)O)C(=O)O)C(=O)N[C@@H](CC(N)=O)C(=O)N[C@@H]([C@@H](C)O)C(=O)N[C@@H](C)C(=O)N[C@@H]([C@@H](C)O)C(=O)N1)[C@@H](C)O)C(=O)N[C@@H](CC(C)C)C(=O)N1CCC[C@H]1C(=O)N1CCC[C@H]1C(=O)N[C@H](C(=O)N[C@@H](CCC(=O)O)C(=O)N[C@H](C(=O)NCC(=O)N[C@@H](CO)C(=O)N[C@@H](CC(N)=O)C(=O)N[C@H](C(=O)N[C@@H](Cc1ccc(O)cc1)C(N)=O)[C@@H](C)O)C(C)C)[C@@H](C)O [Peptide 18, K(γE-γE-C18diacid)[CNTATC]ATQRLANFLRHSSNN(αMePhe)GPILPPTEVGSNTY-amide] (H-K([γGlu-γGlu-C18 diacid])CNTATCATQRLANFLRHSSNN[αMeF]GPILPPTEVGSNTY-NH2; disulfide 2-7; N-terminus assumed)
[1]
  Ratio (selectivity hAMYR vs hCTR, ratio of EC50 values at the two receptors): 15
  EC50: 319 pM
[2]
  EC50: 3090 pM
[3]; iv
  half-life: 12 h
[3]; sc
  half-life: 13.6 h
[4]
  EC50: 4690 pM

## CC[C@H](C)[C@H](NC(=O)[C@@H]1CCCN1C(=O)CNC(=O)[C@](C)(Cc1ccccc1)NC(=O)[C@H](CC(N)=O)NC(=O)[C@H](CC(N)=O)NC(=O)[C@H](CO)NC(=O)[C@H](CO)NC(=O)[C@H](Cc1c[nH]cn1)NC(=O)[C@H](CCCNC(=N)N)NC(=O)[C@H](CC(C)C)NC(=O)[C@H](Cc1ccccc1)NC(=O)[C@H](CC(N)=O)NC(=O)[C@H](C)NC(=O)[C@H](CC(C)C)NC(=O)[C@H](CCCNC(=N)N)NC(=O)[C@H](CCC(N)=O)NC(=O)[C@@H](NC(=O)[C@H](C)NC(=O)[C@@H]1CSSC[C@H](NC(=O)[C@@H](N)CCCCNC(=O)CC[C@H](NC(=O)CC[C@H](NC(=O)CCCCCCCCCCCCCCCCC(=O)O)C(=O)O)C(=O)O)C(=O)N[C@@H](CC(N)=O)C(=O)N[C@@H]([C@@H](C)O)C(=O)N[C@@H](C)C(=O)N[C@@H]([C@@H](C)O)C(=O)N1)[C@@H](C)O)C(=O)N[C@@H](CC(C)C)C(=O)N1CCC[C@H]1C(=O)N1CCC[C@H]1C(=O)N[C@H](C(=O)N[C@@H](CC(N)=O)C(=O)N[C@H](C(=O)NCC(=O)N[C@@H](CO)C(=O)N[C@@H](CC(N)=O)C(=O)N[C@H](C(=O)N[C@@H](Cc1ccc(O)cc1)C(N)=O)[C@@H](C)O)C(C)C)[C@@H](C)O [Peptide 20, K(γE-γE-C18diacid)[CNTATC]ATQRLANFLRHSSNN(αMePhe)GPILPPTNVGSNTY-amide] (H-K([γGlu-γGlu-C18 diacid])CNTATCATQRLANFLRHSSNN[αMeF]GPILPPTNVGSNTY-NH2; disulfide 2-7; N-terminus assumed)
[1]
  Ratio (selectivity hAMYR vs hCTR, ratio of EC50 values at the two receptors): 26
  EC50: 174 pM
[2]
  EC50: 1850 pM
[3]; iv
  half-life: 10 h
[3]; sc
  half-life: 10.8 h
[4]
  EC50: 4590 pM
